Data reported in PMC2885805 (Pesticide biochemistry and physiology, 2010).

Experiments:
[1] = system: desensitizing GluCl (cockroach neurons); assay: whole-cell patch clamp, glutamate-induced chloride current; type: cell-based, Periplaneta americana; conditions: peak current measured; cited from earlier work
[2] = system: non-desensitizing GluCl (cockroach neurons); assay: as above; type: cell-based, Periplaneta americana; conditions: cited from earlier work
[3] = system: rat GABAA receptor; assay: whole-cell patch clamp, GABA-induced chloride current; type: cell-based; conditions: closed channel; rat dorsal root ganglion neurons; cited from earlier work
[4] = system: cockroach GABA receptor; assay: as above; type: cell-based, Periplaneta americana; conditions: resting receptor; holding potential −60 mV, symmetric chloride; cited from earlier work
[5] = system: desensitizing GluCl (cockroach neurons); assay: whole-cell patch clamp, glutamate-induced chloride current; type: cell-based, Periplaneta americana; conditions: 30 μM picrotoxinin; desensitizing component

| Structure (SMILES) | IC50 [1] | IC50 ([2]; steady-state current measured, use-dependent open-channel block) | IC50 [3] | IC50 [4] | IC50 ([2]; non-desensitizing component) | % inhibition at 30 μM [5] |
| --- | --- | --- | --- | --- | --- | --- |
| N#Cc1nn(-c2c(Cl)cc(C(F)(F)F)cc2Cl)c(N)c1[S+]([O-])C(F)(F)F (stereo not drawn) [fipronil] | 801 ± 207 nM | 10 ± 0.9 nM | 1660 nM | 28 nM | – | – |
| C=C(C)[C@@H]1[C@H]2OC(=O)[C@@H]1[C@]1(O)C[C@H]3O[C@]34C(=O)O[C@H]2[C@]14C [picrotoxinin] | – | – | – | – | 4100 ± 1000 nM | 8.2 ± 2.9% |
